Reference: article PMC5503199 (Molecular microbiology, 2009)
Where “and” joins values, the source holds several entries; their conditions need not be identical. Equal entries are not always repeated. Where two headings read alike, the source gives them in different places.

Tests used:
BetX with CbcWV = target: T1, BetX with CbcWV (Pseudomonas aeruginosa, UniProt Q9HZ04); assay: Competitive uptake, MKH13 expressing cbcWV and betX; assay type: cell-based; conditions: pNcbcWV, pT-PA3236, SBP BetX, [^14C]betaine 10 μM, competitor 1 mM
T1 sequence (Q9HZ04 26-285): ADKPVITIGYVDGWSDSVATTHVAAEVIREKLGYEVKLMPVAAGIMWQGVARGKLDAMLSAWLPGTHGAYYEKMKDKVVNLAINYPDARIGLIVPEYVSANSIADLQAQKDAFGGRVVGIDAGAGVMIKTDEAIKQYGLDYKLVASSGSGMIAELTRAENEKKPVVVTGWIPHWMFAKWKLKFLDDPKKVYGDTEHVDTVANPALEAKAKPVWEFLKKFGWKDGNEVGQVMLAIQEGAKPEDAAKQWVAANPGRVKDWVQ
T1 sequence (Q9HTI7 1-279 partner): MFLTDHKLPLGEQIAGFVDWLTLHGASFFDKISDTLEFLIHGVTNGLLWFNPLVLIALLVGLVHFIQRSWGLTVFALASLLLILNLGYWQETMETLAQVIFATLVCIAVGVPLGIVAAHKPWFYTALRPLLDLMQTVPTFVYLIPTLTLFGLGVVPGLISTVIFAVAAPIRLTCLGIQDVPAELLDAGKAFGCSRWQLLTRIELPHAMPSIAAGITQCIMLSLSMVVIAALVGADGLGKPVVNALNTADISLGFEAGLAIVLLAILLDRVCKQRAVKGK
T1 sequence (Q9HTI8 1-392 partner): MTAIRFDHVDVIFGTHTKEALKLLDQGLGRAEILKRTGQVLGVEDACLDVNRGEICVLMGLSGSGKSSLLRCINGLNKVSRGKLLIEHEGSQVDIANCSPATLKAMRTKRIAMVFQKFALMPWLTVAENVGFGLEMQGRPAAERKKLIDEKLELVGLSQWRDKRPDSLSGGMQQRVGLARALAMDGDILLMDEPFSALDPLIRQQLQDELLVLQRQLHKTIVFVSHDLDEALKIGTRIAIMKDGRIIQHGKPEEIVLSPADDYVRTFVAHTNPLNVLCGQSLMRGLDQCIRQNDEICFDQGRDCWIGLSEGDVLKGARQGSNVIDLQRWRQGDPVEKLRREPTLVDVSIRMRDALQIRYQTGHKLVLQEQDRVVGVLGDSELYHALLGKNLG

CaiX with CbcWV = assay type: cell-based, Pseudomonas aeruginosa; conditions: MKH13; pNcbcWV, pT-PA5388; SBP CaiX; [^14C]carnitine 10 μM; competitor 1 mM
CbcX and CaiX with CbcWV = assay type: cell-based, Pseudomonas aeruginosa; conditions: MKH13, pNcbcXWV, pT-PA5388, SBPs CbcX/CaiX, competitor 1 mM
CbcX with CbcWV = CbcX with CbcWV (Pseudomonas aeruginosa, UniProt Q9HTI6); assay: Competitive uptake, MKH13 expressing cbcXWV; assay type: cell-based
ChoXWV = target: T2, ChoXWV (Sinorhizobium meliloti, UniProt Q92N37); assay: Competitive uptake, MKH13 expressing choXWV; assay type: cell-based; conditions: pNchoXWV, SBP ChoX, [^14C]choline 10 μM, competitor 1 mM
T2 sequence (Q92N37 28-318): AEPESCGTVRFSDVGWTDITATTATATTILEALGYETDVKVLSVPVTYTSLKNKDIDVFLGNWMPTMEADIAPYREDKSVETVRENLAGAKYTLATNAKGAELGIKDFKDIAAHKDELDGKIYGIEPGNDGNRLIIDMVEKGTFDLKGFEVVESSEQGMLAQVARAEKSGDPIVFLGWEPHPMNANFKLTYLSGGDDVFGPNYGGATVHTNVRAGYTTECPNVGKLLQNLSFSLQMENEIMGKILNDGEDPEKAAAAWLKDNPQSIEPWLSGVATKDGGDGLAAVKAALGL
T2 sequence (Q92N36 1-281 partner): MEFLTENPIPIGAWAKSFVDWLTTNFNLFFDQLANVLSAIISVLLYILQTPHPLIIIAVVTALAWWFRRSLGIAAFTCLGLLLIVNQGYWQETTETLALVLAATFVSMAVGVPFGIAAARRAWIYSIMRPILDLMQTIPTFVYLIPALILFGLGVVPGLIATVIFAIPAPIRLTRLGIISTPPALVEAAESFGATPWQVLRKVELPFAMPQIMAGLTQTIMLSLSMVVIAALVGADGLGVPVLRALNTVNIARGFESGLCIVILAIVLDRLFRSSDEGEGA
T2 sequence (Q92N35 1-349 partner): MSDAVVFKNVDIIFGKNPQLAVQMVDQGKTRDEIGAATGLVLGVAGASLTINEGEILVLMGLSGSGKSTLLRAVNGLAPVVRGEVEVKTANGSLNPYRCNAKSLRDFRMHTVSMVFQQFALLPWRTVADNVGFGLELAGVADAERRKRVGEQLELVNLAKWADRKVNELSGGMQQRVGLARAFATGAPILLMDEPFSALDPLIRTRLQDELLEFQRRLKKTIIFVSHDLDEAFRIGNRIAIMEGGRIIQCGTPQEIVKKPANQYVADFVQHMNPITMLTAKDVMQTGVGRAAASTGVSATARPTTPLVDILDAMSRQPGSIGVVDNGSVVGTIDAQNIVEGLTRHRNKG

[1] = substrate: C[N+](C)(C)C[C@H](O)CC(=O)[O-]; assay: cells, lysate or membranes; conditions: other: PA5378::tn, pNcbcWV; SBP CaiXPAO1; mean (SE), n = 4
[2] = substrate: C[N+](C)(C)CC(=O)O; assay: cells, lysate or membranes; conditions: mean (SE), n = 4
[3] = substrate: C[N+](C)(C)CCO; assay: cells, lysate or membranes; conditions: mean (SE), n = 4
[4] = other: MKH13, pNcbcXWV, SBP CbcX, Michaelis–Menten fit

CN(C)CC(=O)O [DM, dimethylglycine]
% inhibition of uptake of substrate by unlabelled competitor (BetX with CbcWV): 56%
% inhibition of uptake of substrate by unlabelled competitor (CaiX with CbcWV): 2%
% inhibition of uptake of substrate by unlabelled competitor (CbcX and CaiX with CbcWV; [^14C]betaine 10 μM): −4%
% inhibition of uptake of substrate by unlabelled competitor (CbcX and CaiX with CbcWV; [^14C]choline 10 μM): −8%
% inhibition of uptake of substrate by unlabelled competitor (CbcX with CbcWV): 4%
% inhibition of uptake of substrate by unlabelled competitor (CbcX with CbcWV; MKH13, pNcbcXWV, SBP CbcX, [^14C]betaine 10 μM, competitor 1 mM): −5%

C[N+](C)(C)CCOP(=O)(O)O [PC, phosphorylcholine]
% inhibition of uptake of substrate by unlabelled competitor (CbcX with CbcWV; MKH13, pNcbcXWV, SBP CbcX, [^14C]choline 10 μM, competitor 1 mM): 1%
% inhibition of uptake of substrate by unlabelled competitor (ChoXWV): 5%

CC(=O)OCC[N+](C)(C)C [AC, acetylcholine]
% inhibition of uptake of substrate by unlabelled competitor (ChoXWV): 88%

CNCC(=O)O [MM, monomethylglycine]
% inhibition of uptake of substrate by unlabelled competitor (BetX with CbcWV): −13%
% inhibition of uptake of substrate by unlabelled competitor (CaiX with CbcWV): 0%
% inhibition of uptake of substrate by unlabelled competitor (CbcX and CaiX with CbcWV; [^14C]betaine 10 μM): 3%
% inhibition of uptake of substrate by unlabelled competitor (CbcX and CaiX with CbcWV; [^14C]choline 10 μM): 2%
% inhibition of uptake of substrate by unlabelled competitor (CbcX with CbcWV): −3% and 2%
% inhibition of uptake of substrate by unlabelled competitor (ChoXWV): −4%

B1: CbcWV-CaiX (Pseudomonas aeruginosa PAO1) (protein)
chain: AEPEQCRTVRLGTVNWTDVVASSAVAEALLDGLGYQVKQTSASQQIVLAGLADKQLDLFLGYWQPTMQPVARPYLDKGRIEVIEPPTLADAQSTYAVPSYVAEGGLKTFADIARFKDKLGGRIYAIEPGSGSNRITRKMIDDNRFGLKGFQLVESSEAGMLTAVKRAIKRKQWVVFFGWKPHPMNLQIDMTYLTGSEDVFGPDEGAATVSTMTAAGYQAQCGNVARLLHNLRFSSAQVSQVMAPILDRTQPLDAARQWLKANPEPLKAWLDGVSTFDGKDGLAALQASLK
Km [1]: 24 μM and 24.2 (8.3) μM

B2: CbcX with CbcWV (Pseudomonas aeruginosa PAO1) (protein)
chain: AEPESCASVRFADVGWTDITVTTAVTRQVLESLGYKTKVNLLSVPVTYRSLANNDLDVFLGNWMPTMTNDIKQYAEKGTVETLRANLEGAKYTLAVPQYVYDGGLRSFADIAKFSDKLGNKIYGIEPGNDGNRVAQSMIDKNAFELGKFKLVESSEAGMLSQVQRAIRRNQWVVFLGWEPHPMNTRFQMKYLEGGDDFFGPNYGGATIYTNVRKGYAQECANVGQLLKNLSFTLEMENKLMDAVLNENKKPEEAAKAWLKDHPEQLDAWLAGVTTRDGQPAAAAAKLAFAK
Km [2, 4]: 24.2 (2.4) μM
Vmax [2, 4]: 11.6 (0.6) nmol min^-1
Km [3, 4]: 2.6 (0.66) μM

B3: BetX with CbcWV (Pseudomonas aeruginosa PAO1) (protein)
chain: ADKPVITIGYVDGWSDSVATTHVAAEVIREKLGYEVKLMPVAAGIMWQGVARGKLDAMLSAWLPGTHGAYYEKMKDKVVNLAINYPDARIGLIVPEYVSANSIADLQAQKDAFGGRVVGIDAGAGVMIKTDEAIKQYGLDYKLVASSGSGMIAELTRAENEKKPVVVTGWIPHWMFAKWKLKFLDDPKKVYGDTEHVDTVANPALEAKAKPVWEFLKKFGWKDGNEVGQVMLAIQEGAKPEDAAKQWVAANPGRVKDWVQ
Km ([2]; other: MKH13, pNcbcWV + pTPA3236, SBP BetX): 0.6 (0.16) μM

B4: ChoXWV (Sinorhizobium meliloti 1021) (protein)
chain: AEPESCGTVRFSDVGWTDITATTATATTILEALGYETDVKVLSVPVTYTSLKNKDIDVFLGNWMPTMEADIAPYREDKSVETVRENLAGAKYTLATNAKGAELGIKDFKDIAAHKDELDGKIYGIEPGNDGNRLIIDMVEKGTFDLKGFEVVESSEQGMLAQVARAEKSGDPIVFLGWEPHPMNANFKLTYLSGGDDVFGPNYGGATVHTNVRAGYTTECPNVGKLLQNLSFSLQMENEIMGKILNDGEDPEKAAAAWLKDNPQSIEPWLSGVATKDGGDGLAAVKAALGL
Km ([3]; other: MKH13, pNchoXWV, SBP ChoX): 1.8 (0.36) μM
